Laboratory results as given in US20200187502A1, “MICROBIOCIDAL OXADIAZOLE DERIVATIVES” (SYNGENTA PARTICIPATIONS AG, priority 2017, published 2020).

How the values were obtained:
[1] = tested on: Puccinia recondita f. Sp. Tritici; test: Fungicidal activity, wheat leaf disc curative (brown rust); format: in vivo; conditions: foliar, 200 ppm in the applied formulation, wheat leaf segments cv. Kanzler, curative (applied 1 day after inoculation), compared to untreated control, 6 to 8 days after application, read-out: disease control
In short: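 Compounds, prepared from DMSO solutions of at most 10 mg/ml and diluted just before spraying, are applied curatively to inoculated Kanzler wheat leaf segments. Segments are incubated at 19° C and 75% RH in a climate cabinet; disease control relative to untreated is evaluated 6 to 8 days later.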

[2] = tested on: Glomerella lacenarium (Colletotrichum lacenarium); test: Fungicidal activity, liquid culture, cucumber preventative (anthracnose); format: cell-based; conditions: 20 ppm in the applied formulation, liquid culture in PDB, inhibition of growth measured photometrically 3 to 4 days after application, compared to untreated control, read-out: disease control
In short: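 Spore-based broth assay: conidia mixed into PDB meet compound from a DMSO solution in 96-well format, incubate at 24° C., then inhibition of growth is determined by photometry 3–4 days later relative to the untreated check.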

[3] = tested on: Puccinia recondita f. Sp. Tritici; test: Fungicidal activity, wheat leaf disc preventative (brown rust); format: in vivo; conditions: foliar, 200 ppm in the applied formulation, wheat leaf segments cv. Kanzler, compared to untreated control, 7 to 9 days after application, read-out: disease control
In short: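 Preventative leaf-segment test: spray application of diluted formulated compound on wheat cv. Kanzler, spore inoculation after 1 day. Percent control relative to untreated segments rated 7 to 9 days post-application, with incubation at 19° C, 75% relative humidity, 12 h photoperiod.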

[4] = tested on: Phakopsora pachyrhizi; test: Fungicidal activity, soybean leaf disc preventative (Asian soybean rust); format: in vivo; conditions: foliar, 200 ppm in the applied formulation, soybean leaf disks, compared to untreated control, 12 to 14 days after application, read-out: disease control
In short: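 Read-out is percent disease control relative to untreated check discs, assessed once untreated discs show adequate disease, 12 to 14 days after application. Compounds, tested at 200 ppm in the applied formulation, are sprayed onto soybean leaf discs one day before inoculation with a spore suspension.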

CON(Cc1ccc(-c2noc(C(F)(F)F)n2)s1)C(=O)C1CCC1 [Compound 1.13, N-methoxy-N-[[5-[5-(trifluoromethyl)-1,2,4-oxadiazol-3-yl]-2-thienyl]methyl]cyclobutanecarboxamide]
≥ 80%: pest or weed control at 200 ppm [1] | inhibition of growth at 20 ppm [2] | pest or weed control at 200 ppm [3] | pest or weed control at 200 ppm [4]

COCCNC(=O)N(Cc1ccc(-c2noc(C(F)(F)F)n2)s1)OC [Compound 1.53, 1-methoxy-3-(2-methoxyethyl)-1-[[5-[5-(trifluoromethyl)-1,2,4-oxadiazol-3-yl]-2-thienyl]methyl]urea]
≥ 80%: pest or weed control at 200 ppm [1] | inhibition of growth at 20 ppm [2] | pest or weed control at 200 ppm [3] | pest or weed control at 200 ppm [4]

CCNC(=O)N(CC)Cc1ccc(-c2noc(C(F)(F)F)n2)s1 [Compound 4.8, 1,3-diethyl-1-[[5-[5-(trifluoromethyl)-1,2,4-oxadiazol-3-yl]-2-thienyl]methyl]urea]
≥ 80%: pest or weed control at 200 ppm [1] | inhibition of growth at 20 ppm [2] | pest or weed control at 200 ppm [3] | pest or weed control at 200 ppm [4]

CCC(=O)N(Cc1ccc(-c2noc(C(F)(F)F)n2)s1)C1CC1 [Compound 4.56, N-cyclopropyl-N-[[5-[5-(trifluoromethyl)-1,2,4-oxadiazol-3-yl]-2-thienyl]methyl]propanamide]
≥ 80%: pest or weed control at 200 ppm [1] | inhibition of growth at 20 ppm [2] | pest or weed control at 200 ppm [3] | pest or weed control at 200 ppm [4]

CC(=O)NCc1ccc(-c2noc(C(F)(F)F)n2)s1 [Compound 2.11, N-[[5-[5-(trifluoromethyl)-1,2,4-oxadiazol-3-yl]-2-thienyl]methyl]acetamide]
≥ 80%: pest or weed control at 200 ppm [1] | inhibition of growth at 20 ppm [2] | pest or weed control at 200 ppm [3] | pest or weed control at 200 ppm [4]

O=C(C1CC1)N(Cc1ccc(-c2noc(C(F)(F)F)n2)s1)C1CC1 [Compound 5.2, N-cyclopropyl-N-[[5-[5-(trifluoromethyl)-1,2,4-oxadiazol-3-yl]-2-thienyl]methyl]cyclopropanecarboxamide]
≥ 80%: pest or weed control at 200 ppm [1] | inhibition of growth at 20 ppm [2] | pest or weed control at 200 ppm [3] | pest or weed control at 200 ppm [4]

O=C(NC1CC1)N(Cc1ccc(-c2noc(C(F)(F)F)n2)s1)C1CC1 [Compound 5.62, 1,3-dicyclopropyl-1-[[5-[5-(trifluoromethyl)-1,2,4-oxadiazol-3-yl]-2-thienyl]methyl]urea]
≥ 80%: pest or weed control at 200 ppm [1] | inhibition of growth at 20 ppm [2] | pest or weed control at 200 ppm [3] | pest or weed control at 200 ppm [4]

CON(Cc1ccc(-c2noc(C(F)(F)F)n2)s1)C(=O)C1CC1(F)F (stereo not shown) [Compound 1.8, 2,2-difluoro-N-methoxy-N-[[5-[5-(trifluoromethyl)-1,2,4-oxadiazol-3-yl]-2-thienyl]methyl]cyclopropanecarboxamide]
≥ 80%: pest or weed control at 200 ppm [1] | inhibition of growth at 20 ppm [2] | pest or weed control at 200 ppm [3] | pest or weed control at 200 ppm [4]

C#CCNC(=O)N(Cc1ccc(-c2noc(C(F)(F)F)n2)s1)C(C)C [Compound 4.85, 1-isopropyl-3-prop-2-ynyl-1-[[5-[5-(trifluoromethyl)-1,2,4-oxadiazol-3-yl]-2-thienyl]methyl]urea]
≥ 80%: pest or weed control at 200 ppm [1] | inhibition of growth at 20 ppm [2] | pest or weed control at 200 ppm [3] | pest or weed control at 200 ppm [4]

O=C(NCc1ccc(-c2noc(C(F)(F)F)n2)s1)C1CC1 [Compound 3.1, N-[[5-[5-(trifluoromethyl)-1,2,4-oxadiazol-3-yl]-2-thienyl]methyl]cyclopropanecarboxamide]
≥ 80%: pest or weed control at 200 ppm [1] | inhibition of growth at 20 ppm [2] | pest or weed control at 200 ppm [3] | pest or weed control at 200 ppm [4]
